According to patent publication US10993935B2, “Compositions and methods for treatment of lung infections” (priority 2018, dated 2021):
Converted amounts (≈) assume the structure as drawn.

Key:
[1] = system: Stenotrophomonas maltophilia; assay: RFX MIC testing against MDR clinical isolates; type: cell-based
Experimental: Minimum Inhibitory Concentration Testing. MIC testing was performed as previously described. Briefly, overnight culture of bacteria was diluted in 1:100 of a 0.5 McFarland standard as inoculum. The same number of cells was grown in LB broth containing serial, two-fold dilutions of rifaximin (RFX) or tobramycin (TOB). Growth was measured via optical density (OD) at 600 nm after 24 h incubation at 37° C. Concentrations of antibiotic required for inhibition of 50% and 90% of strains were determined.
Because RFX was not a traditional treatment for P. aeruginosa infections, it was first tested whether RFX was effective in vitro against P. aeruginosa and other bacterial pathogens seen in CF. Since RFX is not used for treatment of ventilator-associated pneumonia (VAP), it was thought the isolates of tracheal aspirates from VAP patients in the ICU may be sensitive to RFX. To determine the susceptibility to RFX, resistant isolates from the Cabell Huntington Hospital were chosen to measure the minimum inhibitory concentrations (MIC) for RFX (Table 3).
MIC50 and MIC90 are the concentrations of RFX required for the growth inhibition of 50% and 90% of strains, respectively.

[2] = system: clinical mucoid isolate from a CF patient; assay: Further test of screen hits on a clinical mucoid isolate; type: cell-based, Pseudomonas aeruginosa; conditions: compared with the other screen hits of Table 2
P. aeruginosa PAO1 = assay: Murine pneumonia model, single-dose treatment, survival; type: in vivo, DBA/2 mice; conditions: 12 mice per group
Experimental: Kaplan-Meier curves showing percent survival of DBA/2 mice with P. aeruginosa PAO1 infection after treatment with RFX or TOB at 0 h post-infection (FIG. 5A), 6 h post-infection (FIG. 5B), and 12 h post-infection (FIG. 5C). Data shown represent means of 12 mice per group. The Mantel-Cox test was used with significance set at a P value of <0.01 and showing standard error (SE) bars.
Murine Pneumonia Model Treatment. TOB or RFX were used to treat P. aeruginosa respiratory infection in a DBA/2 mouse model established previously. Lung infection was induced by a single exposure to a total of 84 male DBA/2 mice of 8 week old (Charles River Laboratories) to P. aeruginosa PAO1 aerosols, which was prepared as previously reported. Immediately after infection, the mice were separated into seven groups (n=12 per group): 1) control with no treatment, 2) treatment with 300 mg TOB immediately after infection, 3) treatment with 300 mg RFX immediately after infection, 4) treatment with 300 mg TOB 6 h after infection, 5) treatment with 300 mg RFX 6 h after infection, 6) treatment with 300 mg TOB 12 h after infection, or 7) treatment with 300 mg RFX 12 h after infection. Each experimental group was treated with TOB or RFX with a control group treated with PBS following the nebulization protocol as described above. The mice were monitored for survival at 12 hour intervals for 72 hours and then at 24 hour intervals for 6 weeks.
After establishing the dosing of TOB or RFX to efficiently reach the lungs, the efficacy of both drugs against P. aeruginosa lung infections was compared using an established mouse model. DBA/2 (n=84) male mice were first infected with aerosolized P. aeruginosa PAO1 in a whole-body exposure chamber as previously described. The mice were then separated into four groups. One group was left untreated to determine the rate of mortality (control). The remaining three groups were treated with RFX or TOB using a pressure-based nebulizer and whole-body exposure chamber at a concentration of 300 mg at 0 h, 6 h, or 12 h post infection. All control mice died within 5 days (FIGS. 5A-5C), consistent with what was previously reported. […] In the 12 h treatment group, 83% of mice treated with RFX survived, while only 50% of mice treated with TOB survived (FIG. 5C).

P. aeruginosa strains = assay: MIC and synergy testing (checkerboard/isobologram) of RFX and TOB; type: cell-based, Pseudomonas aeruginosa; conditions: strain CF003, NM
P. aeruginosa biofilms [3] = assay: Biofilm reduction assay (crystal violet); type: cell-based, Pseudomonas aeruginosa; conditions: PAO1, CF001, CF010; 24 h biofilms treated at 3×MIC
Experimental: (§1) FIGS. 3A-3B include graphs showing biofilm and cell viability reduction from treatment with TOB and/or RFX, where (FIG. 3A) biofilms were grown for 24 h in a 96-well plate and then treated with TOB, RFX, or TOB and RFX at a concentration of 3×MIC, or where (FIG. 3B) biofilms were grown for 24 h in a 96-well plate and then treated with TOB, RFX, or TOB and RFX at concentration of 3×MIC. Two-way ANOVA analysis was used with statistical significance set as a P value of <0.01 (****, P<0.0001; **, P<0.001; *, P<0.01).
Biofilm Reduction Assay. A biofilm reduction assay was used to determine the reduction of biofilms in P. aeruginosa strains by TOB and/or RFX. Briefly, biofilms were grown in a flat bottom 96-well microplate (Corning) using 200 μl LB of 1.0-1.5×10^5 inoculum of lab and clinical strains of non-mucoid and mucoid P. aeruginosa. After 24-30 h incubation at 37° C., the media was removed, and plates were washed with PBS. New media containing 1-5×MIC90 of TOB and/or RFX was added to the plate in a checkerboard pattern to determine synergy of biofilm reduction. After 24 h incubation at 37° C., the media was removed and 200 μl of 0.1% aqueous crystal violet was added and left at room temperature 0.5 h. […] The plates were then read via OD at 595 nm using SpectraMax i3x plate reader to compare biofilm dispersion between TOB and/or RFX. […]

P. aeruginosa biofilms [4] = assay: Viable cell assay in preformed biofilms (MTT); type: cell-based, Pseudomonas aeruginosa; conditions: PAO1, CF001, CF010; 24 h biofilms treated at 3×MIC
Experimental: as §1
Viable Cell Assay. Viable cell counts were done to determine the reduction of viable cells in preformed biofilms treated with TOB and/or RFX. Briefly, following biofilm reduction protocol, biofilms were grown in a flat bottom 96-well microplate (Corning) using 200 μl LB of 1.0-1.5×10^5 inoculum of lab and clinical strains of non-mucoid and mucoid P. aeruginosa for 24 h at 37° C. After incubation, the media was removed, and plate was washed with PBS twice. New LB media containing 1-5×MIC90 of TOB and/or RFX was added to the plate in a checkerboard pattern. After 24 h growth at 37° C., the media was removed and replaced with methylthiazoltetrazolium (MTT; Sigma). After 1 h incubation, DMSO was added and plates were read via OD at 570 nm using SpectraMax i3x plate reader to determine viable cell differences between TOB and/or RFX. […]

[5] = Stenotrophomonas maltophilia, 1 strain
[6] = 300 mg nebulized at 0 h after infection
[7] = 300 mg nebulized at 6 h post infection
[8] = 300 mg nebulized at 12 h post infection

Compound	MIC50 [1, 5]	MIC90 [1, 5]	growth of clinical isolates ([1]; clinical isolates, in words)	inhibition of growth and mucoidy [2]	survival (P. aeruginosa PAO1; [6])	survival (P. aeruginosa PAO1; [7])	survival (P. aeruginosa PAO1; [8])	FIC RFX (P. aeruginosa strains)	MIC RFX in Combination (P. aeruginosa strains; in combination with TOB)	reduction of preformed biofilm (biofilm aggregates) (P. aeruginosa biofilms [3])	viable cells in a preformed biofilm (P. aeruginosa biofilms [4])
CO[C@H]1/C=C/O[C@@]2(C)Oc3c(C)c(O)c4c(O)c(c5c(nc6cc(C)ccn65)c4c3C2=O)NC(=O)/C(C)=C\C=C\[C@H](C)[C@H](O)[C@@H](C)[C@@H](O)[C@@H](C)[C@H](OC(C)=O)[C@@H]1C [RFX, rifaximin]	16 µg/mL (≈ 20.4 µM)	16 µg/mL (≈ 20.4 µM)	effectively inhibit the growth	most effective drug to inhibit the growth and mucoidy	100%	92%	83%	0.25	1	–	–
NC[C@H]1O[C@H](O[C@H]2[C@H](O)[C@@H](O[C@H]3O[C@H](CO)[C@@H](O)[C@H](N)[C@H]3O)[C@H](N)C[C@@H]2N)[C@H](N)C[C@@H]1O [TOB, tobramycin]	–	–	–	–	92%	58%	50%	–	–	significantly reduced biofilm as compared to the untreated control	significantly reduced the number of viable cells
